This is an account of results in patent US20200138827A1, “SMALL MOLECULE MODULATORS OF HUMAN STING” (Curadev Pharma Limited, priority 2017, published 2020).

This assay has as its target T1, WT/R232 STING protein (Homo sapiens, UniProt Q86WV6, H232R).
T1 construct: host or cells: HEK293T
Kind of assay: Luciferase reporter assay in HEK293T-hSTING-Luciferase cells, WT/R232. The assay is classed as cell-based. As to conditions: 20 hr stimulation, read-out: R232 Activity (EC50 range). Summed up:
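[…], read by luminescence from supernatant after 20 h compound stimulation. Cells: clonally selected HEK293T (5×10^5/well) stably carrying WT/R232 human STING and a luciferase reporter under five tandem ISREs fused to an ISG54 minimal promoter.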

T1 sequence (Q86WV6 whole entry H232R): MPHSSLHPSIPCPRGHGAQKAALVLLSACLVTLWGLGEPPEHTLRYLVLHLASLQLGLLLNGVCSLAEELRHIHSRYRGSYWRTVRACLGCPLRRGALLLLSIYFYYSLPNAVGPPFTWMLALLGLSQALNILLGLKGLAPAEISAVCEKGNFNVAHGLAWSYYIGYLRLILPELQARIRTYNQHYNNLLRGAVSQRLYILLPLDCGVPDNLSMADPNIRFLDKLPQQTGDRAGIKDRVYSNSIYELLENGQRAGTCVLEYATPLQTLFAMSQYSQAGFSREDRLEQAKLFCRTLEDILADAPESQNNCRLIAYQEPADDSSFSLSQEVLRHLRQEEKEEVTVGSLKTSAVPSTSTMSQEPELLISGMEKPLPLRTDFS

As for `O=C(NCc1ccco1)c1ccc2c(c1)N(CCc1ccccc1)C(=O)CS2` [Example 8, N-(furan-2-ylmethyl)-3-oxo-4-phenethyl-3,4-dihydro-2H-benzo[b-1,4]thiazine-6-carboxamide], the EC50 is over 10 µM.
Regarding `Cc1cnc(CNC(=O)c2ccc3c(c2)N(Cc2ccccc2)C(=O)CS3)s1` [Example 64, 4-benzyl-N-((5-methylthiazol-2-yl)methyl)-3-oxo-3,4-dihydro-2H-benzo[b-1,4]thiazine-6-carboxamide], the EC50 is over 10 µM.
In the case of `O=C(NCc1cccnc1)c1ccc2c(c1)N(Cc1c(F)cccc1Cl)C(=O)CS2` [Example 109, 4-(2-chloro-6-fluorobenzyl)-3-oxo-N-(pyridin-3-ylmethyl)-3,4-dihydro-2H-benzo[b-1,4]thiazine-6-carboxamide] it was over 10 µM; in that of `COc1cc(CN2C(=O)C(C)Sc3ncc(C(=O)NCc4c(F)cc(F)cc4F)cc32)ccn1` (stereo not drawn) [Example 206, 1-((2-methoxypyridin-4-yl)methyl)-3-methyl-2-oxo-N-(2,4,6-trifluorobenzyl)-2,3-dihydro-1H-pyrido[2,3-b][1,4] thiazine-7-carboxamide], 1 to 10 µM.
As to `O=C(NCc1ccco1)c1ccc2c(c1)N(C(=O)c1c(F)cccc1Cl)CCS2` [Example 256, 4-(2-chloro-6-fluorobenzoyl)-N-(furan-2-ylmethyl)-3,4-dihydro-2H-benzo[b][1,4]thiazine-6-carboxamide], the EC50 was over 10 µM.
As for `O=C(NCC1CCCN(c2ccccc2)C1)c1ccc2c(c1)N(Cc1ccccc1F)C(=O)CS2` (stereo not drawn) [Example 49, 4-(2-fluorobenzyl)-3-oxo-N-((1-phenyl-piperidin-3-yl)methyl)-3,4-dihydro-2H benzo[b][1,4] thiazine-6-carboxamide], the figure is over 10 µM; as for `C[C@@H]1Oc2ncc(C(=O)NCc3cc4ccccc4o3)cc2N(Cc2cc(F)cc(F)c2)C1=O` [Example 241, (S)-N-(benzofuran-2-ylmethyl)-1-(3,5-difluorobenzyl)-3-methyl-2-oxo-2,3-dihydro-1H-pyrido[2,3-b][1,4]oxazine-7-carboxamide], 1 to 10 µM.
Take `O=C(NCc1ccco1)c1ccc2c(c1)N(Cc1cccc(C(F)(F)F)c1)C(=O)CS2` [Example 97, N-(furan-2-ylmethyl)-3-oxo-4-(3-(trifluoromethyl)benzyl)-3,4-dihydro-2H-benzo[b-1,4]thiazine-6-carboxamide]: the EC50 is over 10 µM.
For `O=C(NCC1CCN(Cc2ccccc2)CC1)c1ccc2c(c1)N(Cc1c(F)cccc1Cl)C(=O)CS2` [Example 48, N-((1-benzylpiperidin-4-yl)methyl)-4-(2-chloro-6-fluorobenzyl)-3-oxo-3,4-dihydro-2H-benzo[b][1,4] thiazine-6-carboxamide], the EC50 is over 10 µM.
As for `O=C(CN1C(=O)CSc2ccc(C(=O)NCc3ccco3)cc21)c1ccccc1` [Example 2, N-(furan-2-ylmethyl)-3-oxo-4-(2-oxo-2-phenylethyl)-3,4-dihydro-2H-benzo[b][1,4] thiazine-6-carboxamide], the figure is over 10 µM; as for `O=C(NCc1ccco1)c1ccc2c(c1)N(CC(O)c1ccccc1)CCS2` (stereo not drawn) [Example 248, N-(furan-2-ylmethyl)-4-(2-hydroxy-2-phenylethyl)-3,4-dihydro-2H-benzo[b-1,4]thiazine-6-carboxamide], over 10 µM; as for `O=C(NCCC1CCCCC1)c1ccc2c(c1)N(Cc1ccccc1)C(=O)CS2` [Example 81, 4-benzyl-N-(2-cyclohexylethyl)-3-oxo-3,4-dihydro-2H-benzo[b-1,4]thiazine-6-carboxamide], over 10 µM.
As for `O=C(NCc1ccco1)c1cc(Br)c2c(c1)N(Cc1ccccc1F)C(=O)CS2` [Example 221, 8-bromo-4-(2-fluorobenzyl)-N-(furan-2-ylmethyl)-3-oxo-3,4-dihydro-2H-benzo[b-1,4]thiazine-6-carboxamide], the EC50 is over 10 µM.
In the case of `CN(C)C1Sc2ccc(C(=O)NCc3ccco3)cc2N(Cc2ccccc2F)C1=O` (stereo not drawn) [Example 135, 2-(dimethylamino)-4-(2-fluorobenzyl)-N-(furan-2-ylmethyl)-3-oxo-3,4-dihydro-2H-benzo[b-1,4]thiazine-6-carboxamide] it was over 10 µM.
In the case of `O=C(NCc1c(F)cc(F)cc1F)c1ccc2c(c1)N(S(=O)(=O)c1cc(F)cc(F)c1)CCS2` [Example 262, 4-((1,5-Difluorophenyl)sulfonyl)-N-(2,4,6-trifluorobenzyl)-3,4-dihydro-2H-benzo[b-1,4]thiazine-6-carboxamide] it was over 10 µM; in that of `O=C(NCc1c(F)cccc1Cl)c1ccc2c(c1)N(Cc1c(F)cccc1Cl)C(=O)CS2` [Example 21, N,4-bis(2-chloro-6-fluorobenzyl)-3-oxo-3,4-dihydro-2H-benzo[b-1,4]thiazine-carboxamide], 1 to 10 µM; in that of `O=C(NCc1ccccc1Cl)c1ccc2c(c1)N(Cc1ccccc1)C(=O)CS2` [Example 117, 4-benzyl-N-(2-chlorobenzyl)-3-oxo-3,4-dihydro-2H-benzo[b-1,4]thiazine-6-carboxamide], over 10 µM.
As for `O=C(NCc1ccco1)c1ccc2c(c1)N(Cc1ccccc1)C(=S)CS2` [Example 266, 4-Benzyl-N-(furan-2-ylmethyl)-3-thioxo-3,4-dihydro-2H-benzo[b-1,4]thiazine-6-carboxamide], the figure is over 10 µM; as for `O=C(NCc1ccco1)c1ccc2c(c1)N(C(=O)c1ccccc1F)CCS2` [Example 253, 4-(2-Fluorobenzoyl)-N-(furan-2-ylmethyl)-3,4-dihydro-2H-benzo[b-1,4]thiazine-6-carboxamide], over 10 µM; as for `O=C(NCC1CCCO1)c1ccc2c(c1)N(Cc1c(F)cccc1Cl)C(=O)CS2` (stereo not drawn) [Example 130, 4-(2-chloro-6-fluorobenzyl)-3-oxo-N-((tetrahydrofuran-2-yl)methyl)-3,4-dihydro-2H-benzo[b-1,4]thiazine-6-carboxamide], over 10 µM.
Turning to `CC1Sc2ccc(C(=O)NCc3cnn(C)c3)cc2N(Cc2cc(F)cc(F)c2)C1=O` (stereo not drawn) [Example 169, 4-(3,5-difluorobenzyl)-2-methyl-N-((1-methyl-1H-pyrazol-4-yl)methyl)-3-oxo-3,4-dihydro-2H-benzo[b][1,4] thiazine-6-carboxamide], the EC50 was over 10 µM.
`C[C@H]1Oc2ncc(C(=O)NCc3c(F)cc(F)cc3F)cc2N(Cc2cc(F)cc(F)c2)C1=O` [Example 238, (R)-1-(3,5-difluorobenzyl)-3-methyl-2-oxo-N-(2,4,6-trifluorobenzyl)-2,3-dihydro-1H-pyrido[2,3-b-1,4]oxazine-7-carboxamide]: the EC50 lay in the range of 1 to 10 µM.
As to `Cn1cc(CNC(=O)c2ccc3c(c2)N(Cc2ccccc2)C(=O)CS3)cn1` [Example 121, 4-benzyl-N-((1-methyl-1H-pyrazol-4-yl)methyl)-3-oxo-3,4-dihydro-2H-benzo[b][1,4] thiazine-6-carboxamide], the EC50 was over 10 µM.
As to `O=C(NCc1ncccn1)c1ccc2c(c1)N(Cc1ccccc1)C(=O)CS2` [Example 54, 4-benzyl-3-oxo-N-(pyrimidin-2-ylmethyl)-3,4-dihydro-2H-benzo[b-1,4]thiazine-6-carboxamide], the EC50 is over 10 µM.
In the case of `Cc1noc(CNC(=O)c2cnc3c(c2)N(Cc2cc(F)cc(F)c2)C(=O)C(C)S3)n1` (stereo not drawn) [Example 212, 1-(3,5-difluorobenzyl)-3-methyl-N-((3-methyl-1,2,4-oxadiazol-5-yl)methyl)-2-oxo-2,3-dihydro-1H-pyrido[2,3-b] [1,4] thiazine-7-carboxamide] it was over 10 µM.
In the case of `CC1Sc2ccc(C(=O)NCc3ccn(C)n3)cc2N(Cc2c(F)cccc2Cl)C1=O` (stereo not drawn) [Example 172, 4-(2-chloro-6-fluorobenzyl)-2-methyl-N-((1-methyl-1H-pyrazol-3-yl)methyl)-3-oxo-3,4-dihydro-2H-benzo[b] [1,4]thiazine-6-carboxamide] it was over 10 µM; in that of `O=C(CN1C(=O)CSc2ccc(C(=O)NCc3ccco3)cc21)Nc1ccccc1` [Example 5, N-(furan-2-ylmethyl)-3-oxo-4-(2-oxo-2-(phenylamino)ethyl)-3,4-dihydro-2H-benzo[b-1,4]thiazine-6-carboxamide], over 10 µM; in that of `Cc1ccc(CNC(=O)c2cnc3c(c2)N(Cc2c(F)cccc2Cl)C(=O)CS3)o1` [Example 207, 1-(2-chloro-6-fluorobenzyl)-N-((5-methylfuran-2-yl)methyl)-2-oxo-2,3-dihydro-1H-pyrido [2,3-b][1,4] thiazine-7-carboxamide], 1 to 10 µM.
In the case of `CC(C)(NC(=O)c1ccc2c(c1)N(Cc1ccccc1)C(=O)CS2)c1ccccc1F` [Example 78, 4-benzyl-N-(2-(2-fluorophenyl)propan-2-yl)-3-oxo-3,4-dihydro-2H-benzo[b-1,4]thiazine-6-carboxamide] it was over 10 µM.
For the compound `O=C(NCc1c(F)cc(F)cc1F)c1cc(CCO)c2c(c1)N(Cc1ccc(F)cc1)C(=O)CS2` [Example 222, 4-(4-fluorobenzyl)-8-(2-hydroxyethyl)-3-oxo-N-(2,4,6-trifluorobenzyl)-3,4-dihydro-2H-benzo[b][1,4] thiazine-6-carboxamide], the EC50 is over 10 µM.
Take `C[C@@H](NC(=O)c1ccc2c(c1)N(Cc1ccccc1F)C(=O)CS2)C1CCCCC1` [Example 19, (R)-N-(1-cyclohexyl-ethyl)-4-(2-flurobenzyl)-3-oxo-3,4-dihydro-2H-benzo[b-1,4]thiazine-6-carboxamide]: the concentration for a half-maximal effect (EC50) was over 10 µM.
`Cc1cnc(CNC(=O)c2ccc3c(c2)N(Cc2cc(F)cc(F)c2)C(=O)C(C)S3)o1` (stereo not drawn) [Example 163, 4-(3,5-difluorobenzyl)-2-methyl-N-((5-methyloxazol-2-yl)methyl)-3-oxo-3,4-dihydro-2H-benzo[b][1,4] thiazine-6-carboxamide]: the EC50 lay within 1 to 10 µM.
As for `O=C(CN1CCSc2ccc(C(=O)NCc3ccco3)cc21)c1ccccc1` [Example 249, N-(furan-2-ylmethyl)-4-(2-oxo-2-phenylethyl)-3,4-dihydro-2H-benzo[b][1,4]thiazine-6-carboxamide], the figure is over 10 µM.
